Values of other authors, collected in US7700798B1, “Erogorgiaene congeners and methods and intermediates useful in the preparation of same” (The Research Foundation of State University of New York, priority 2005, dated 2010).

Conditions: literature statement, comparison with the commercially used natural products

In the case of Elisabethadione, the “anti-inflammatory potency compared with the pseudopterosins” value is given as “more potent than the related and commercially used natural products, the pseudopterosins”.
